In a melting point compilation (Tetko et al.; mined from patent text by program, amines drawn as free bases though some values may be those of a salt):

First: C=C1CCC23OC2(C1)CC(C)C1C2CCC(O)C2(C)CCC13 (stereo not drawn)
Second: O=C(C1CCCCC1)C1CCN(C(=O)c2cc(O)c(O)c([N+](=O)[O-])c2)CC1
The melting point of the first is lower: 125 °C for the first, 155 to 165 °C for the second.

Compared with `FC(F)(F)c1ccc(Sc2nc(-c3ccccc3)c(-c3ccccc3)[nH]2)cc1`, `Cc1ccc(-c2nc(C(F)(F)F)nc(Cl)c2-c2ccccc2)cc1` is lower in melting point: 227 to 229 °C for the first, 97 to 100 °C for the second.

First: CCC1c2c([nH]c(=O)c(O)cc2=O)CC(Cl)C1Cl (stereo not drawn)
Second: CCCC(=O)C1C(=O)CC(c2ccc(C)cc2)CC1=O (stereo not drawn)
The melting point of the first is higher: 197 °C for the first, 76 to 78 °C for the second.

Compared with `CNC(=O)Cn1c(-c2ccc(C)s2)nc2cccnc21`, `CNC(=O)Cn1c(-c2ccc(Br)cc2)nc2cccnc21` is higher in melting point: 213 to 216 °C for the first, 258 to 259 °C for the second.

First: CC1(C)OC(=O)Nc2ccc(-c3ccc(F)c(F)c3)cc21
Second: COc1ccc(-c2cc(CO)c(=O)n(Cc3ccc(F)c(F)c3)n2)cc1F
The melting point of the first is higher: 207 to 208 °C for the first, 154 to 156 °C for the second.

First: CCn1nc2c(N)nc3cnccc3c2c1CC(C)(C)C
Second: COc1cc2nc(N3CCN(c4nc5ccccc5s4)CC3)nc(N)c2cc1OC
The melting point of the first is higher: over 260 °C for the first, 242 to 245 °C for the second.

Compared with `O=C(OCc1ccc([N+](=O)[O-])cc1)N1CCC(I)CC1`, `O=[N+]([O-])c1ccc(-n2nc(CO)c3c2CCCC3)cc1` is higher in melting point: 102 to 104 °C for the first, 219 °C for the second.

First: Cn1ncnc1COc1nn2c(-c3ccccc3F)nncc2c1-c1cccc(F)c1F
Second: Cc1ccc2cc(-c3cccc4ccccc34)nc(Cl)c2c1
The melting point of the first is higher: 176 °C for the first, 93 °C for the second.

First: CCOC(=O)c1cn(C2CC2)c2c(Cl)c(F)ccc2c1=O
Second: Cc1c(N2CCC(N(C)Cc3ccccc3)C2)c(F)cc2c(=O)c(C(=O)O)cn(C3CC3)c12 (stereo not drawn)
The melting point of the first is lower: 149 to 153 °C for the first, 161 °C for the second.

Compared with `CON=C(C(=O)O)c1csc(NC(=O)CCl)n1`, `COC(=O)CC(=O)NC(N)Cc1ccccc1` (stereo not drawn) is lower in melting point: 182 to 183 °C for the first, 98 to 102 °C for the second.

First: CC(C)=CC(=O)Nc1c(C(O)(C(F)(F)F)C(F)(F)F)ccc2ccccc12
Second: COc1ccc2cccc(C(O)CNC(C)=O)c2c1 (stereo not drawn)
The melting point of the first is lower: 135 to 137 °C for the first, 173 to 175 °C for the second.

First: COC(=O)c1ccc(C(=O)c2ccccc2)[nH]1
Second: O=C(CC(=O)OCc1ccccc1)OCc1ccccc1
The melting point of the first is higher: 111 to 113 °C for the first, 104 to 106 °C for the second.

First: O=C(NCCCCC1CCSS1)NN1CCCCC1 (stereo not drawn)
Second: CCCCC1(C2CCCC2)Cc2cc(OCCCC(=O)O)c(Cl)c(Cl)c2C1=O (stereo not drawn)
The melting point of the first is lower: 67 to 69 °C for the first, 139 to 140 °C for the second.

First: CNC(=O)n1nc(-c2ccc(Cl)cc2)nc1N
Second: CCOC(=O)Cc1nc(-c2ccc(Cl)cc2)oc1-c1ccco1
The melting point of the first is higher: 193 to 196 °C for the first, 105 to 106 °C for the second.

Going from `COc1c(OCc2ccccc2)ccc2[nH]ccc(=O)c12` to `O=C1NC(=NCc2ccccc2)C(c2ccc(Br)cc2)N1c1ccc2[nH]cnc2c1` (stereo not drawn), the melting point rises from 180 °C to 244 °C.

First: N#CNc1cccc2ccccc12
Second: O=S(=O)(Cc1cccc2ccccc12)c1ccccc1
The melting point of the first is higher: 132 to 133 °C for the first, 89 °C for the second.

Compared with `CCc1nc(CC)c(CO)c(-c2ccccc2)c1C=C(C)C`, `CCNC(CO)Cc1cn(Cc2ccccc2)cn1` (stereo not drawn) is higher in melting point: 103 to 104 °C for the first, 109 to 110 °C for the second.

Compared with `COC(=O)C(Cc1ccc(O)c(O)c1)NC(=O)OC(C)(C)C` (stereo not drawn), `COC(=O)C=Cc1cn(Cc2ccc(C(=O)OC(C)(C)C)cc2OC)c2cc(C(=O)NCC3CCCC3)ccc12` is higher in melting point: 132 to 135 °C for the first, 163 to 164 °C for the second.

`CN(CC1=NC(=S)N=N1)C(COCc1cc(C(F)(F)F)cc(C(F)(F)F)c1)C(c1ccccc1)c1ccccc1` (stereo not drawn) and `OP(O)C(NC(c1ccccc1)c1ccccc1)c1ccco1` (stereo not drawn) cannot be ordered by melting point: 192 to 194 °C for the first, 193 °C for the second.

First: COc1ccnc(CCc2nc3cc(-c4ccc(S(=O)(=O)N5CCC(C(=O)c6ccccc6)CC5)cc4)cnc3[nH]2)c1
Second: CC1CCCC(C)N1Cc1ccc2cc(NC(=O)c3ccc(-c4ccccc4)cc3)ccc2n1 (stereo not drawn)
The melting point of the first is lower: 174 to 175 °C for the first, 180 to 181 °C for the second.

First: Cc1c2n(c3ccccc13)CC(C)(C)C2O (stereo not drawn)
Second: Cc1c(NC(=O)CC(C)(C)C)cc2c(c1C)OC(C)(C)C2Cc1ccccc1 (stereo not drawn)
The melting point of the first is lower: 82 to 85 °C for the first, 186 to 187 °C for the second.

Compared with `Clc1cc(CC(Cl)(Cl)Cl)cnc1Cl`, `N#Cc1c(Cl)cnc2cc(I)sc12` is higher in melting point: 98 to 99 °C for the first, 209 to 211 °C for the second.

First: CCNC(=O)c1ccc(-n2nnc(C(=O)NC3CC3)c2CO)c(O)c1
Second: Cc1cc(C(=O)N[C@H]2CC[C@H](CCN3CCN(c4nccc5c4OCC5)CC3)CC2)on1
The melting point of the first is lower: 185 °C for the first, 199 °C for the second.

First: C1CNCCN2CCOCCOCCN(CCN1)CCOCCOCC2
Second: CN1CCN(C2=Nc3ccccc3Oc3sc(Br)cc32)CC1
The melting point of the first is lower: 69 °C for the first, 150 to 151 °C for the second.

First: O=C(Nc1nnc[nH]1)c1ccc2ccccc2c1
Second: Cc1nc(-n2ccccc2=O)sc1C(=O)NCc1ccccc1
The melting point of the first is higher: 191 to 192 °C for the first, 180 to 182 °C for the second.

First: COc1cc2nc(N)nc(-c3ccccc3Cl)c2cc1OC
Second: Cc1cc2nc(C)c(S(=O)Cc3ccccc3N(C)C)nc2cc1C (stereo not drawn)
The melting point of the first is higher: 247 to 280 °C for the first, 83 to 88 °C for the second.

First: CC(C)(C)OC(=O)N1CCN2C(=O)OC(Cc3ccccc3)(Cc3ccccc3)C2C1 (stereo not drawn)
Second: O=C(Cc1ccccc1)C(C[N+](=O)[O-])c1ccccc1 (stereo not drawn)
The melting point of the first is higher: 188 to 189 °C for the first, 99 to 100 °C for the second.

`CC(C)n1c(=O)[nH]c2ncc(-c3ccc(O)cc3)nc21` and `CC(C)Cn1c(=O)n(C)c(=O)c2nc(-c3ccc(/C=C/C(=O)O)cc3)[nH]c21` cannot be ordered by melting point: 323 to 324 °C for the first, over 300 °C for the second.

Compared with `COc1ccc(C(=O)NCc2ccc(OCCN(C)C)cc2)cc1OC`, `CNCCOc1cc(NC(=O)c2ccc(-c3ccc(-c4noc(C)n4)cc3C)cc2)ccc1OC` is lower in melting point: 111 to 112 °C for the first, 97 to 99 °C for the second.

First: CCCCCCCCCCCCCCCCNc1ccc(C(=O)NS(=O)(=O)C(F)(F)F)cc1
Second: CCOC(=O)c1ccc(CCNS(=O)(=O)c2ccc(Cl)cc2)cc1
The melting point of the first is higher: 172 to 174 °C for the first, 88 °C for the second.

First: CC(C)(C)OC(=O)c1nc(-c2ccc(Cl)cc2Cl)n(-c2ccc(Cl)cc2)c1S(C)(=O)=O
Second: CS(=O)(=O)c1ccc(-n2cc(C(F)F)nc2-c2ccc(Cl)cc2)cc1
The melting point of the first is lower: 130 °C for the first, 179 to 180 °C for the second.

First: COc1ccc(-c2cc(C)cn2-c2ccc(S(N)(=O)=O)cc2)cc1
Second: COc1ccc(C(C#N)Nc2ccc(S(C)(=O)=O)cc2)cc1 (stereo not drawn)
The melting point of the first is higher: 163 to 166 °C for the first, 131 to 132 °C for the second.

First: O=C(CCC12CCC(=O)N1C(=O)CC2)Nc1ccncc1
Second: CS(=O)(=O)Nc1ccc(C2CCN(c3ccncc3)CC2)cc1
The melting point of the first is higher: 285 to 287 °C for the first, 269 to 271 °C for the second.

Compared with `O=C(O)CCc1ccc(OCCN2CCCC2=O)cc1Oc1ncc(C(F)(F)F)cc1Cl`, `CN(C)C(=O)c1cc(-c2ncc(C(F)(F)F)cc2Cl)ccc1Cl` is lower in melting point: 145 to 146 °C for the first, 90 to 91 °C for the second.

Compared with `O=C(Cl)c1cccnc1Oc1cccc(Cl)c1`, `N#Cc1cc(CO)nc(C(=O)Nc2cccc(Cl)c2)c1` is higher in melting point: 72 to 74 °C for the first, 167 °C for the second.

First: COc1cc2c(c(Cl)c1Cl)C(=O)C(C1CCCC1)C2 (stereo not drawn)
Second: COc1ccc(CC(=O)N[C@H]2C[C@H](C(=O)O)Nc3cc(Cl)cc(Cl)c32)cc1 (relative stereo)
The melting point of the first is lower: 116 to 117 °C for the first, 245 to 247 °C for the second.

Compared with `CN1CCC(N(C)S(=O)(=O)c2ccc(Nc3nccc(Nc4ccc(F)c(F)c4)n3)cc2)CC1`, `CN1CCN(c2ccc(S(=O)(=O)Oc3ccc(Cl)cc3)cc2)C1=O` is lower in melting point: 181 to 183 °C for the first, 165 to 168 °C for the second.

Compared with `COC(=O)C(C)Oc1ccc(Oc2ccc(Cl)cc2F)cc1` (stereo not drawn), `COc1ccc(CN2CCc3cc(O)ccc3C2)c(OC)c1` is higher in melting point: 55 to 57 °C for the first, 149 to 152 °C for the second.

First: O=c1[nH]cc(C=Cc2cccnc2)c2ccccc12
Second: O=C(c1ccc(O)cc1)N1CCN(CC(O)Cn2c3ccccc3c3ccccc32)CC1 (stereo not drawn)
The melting point of the first is higher: 222 to 224 °C for the first, 184 °C for the second.

First: COc1cccc2sc(-c3ccc(C)cc3)nc12
Second: COc1nc(Br)cnc1NS(=O)(=O)c1ccccc1-c1ccc(CC(C)C)cc1
The melting point of the first is lower: 98 to 100 °C for the first, 154 to 156 °C for the second.

First: CC1CC(=O)N(Cc2ccccc2)c2ccccc2N1C(=O)CN1C(=O)c2ccccc2C1=O (stereo not drawn)
Second: O=C(O)CSc1nccc(-n2cc(C3c4ccccc4C=Cc4ccccc43)c(=S)[nH]c2=O)n1
The melting point of the first is higher: 248 to 250 °C for the first, 190 °C for the second.

First: Cc1ncn(Cc2ccc(NC(=O)Nc3ccc(Oc4cc(Cl)ncn4)cc3)cc2C(F)(F)F)c1C
Second: CCOC(=O)c1cc(NCc2ccccc2)c(Nc2ccc(Cl)cc2)c(S(N)(=O)=O)c1
The melting point of the first is higher: 195 to 196 °C for the first, 187 °C for the second.

First: COc1c(Cl)ccnc1C(=O)O
Second: CO/C=C(/C(=O)OC)c1ccccc1Oc1ncnc(Cl)n1
The melting point of the first is lower: 116 to 117 °C for the first, 137 to 140 °C for the second.

First: CSc1ccc(C(CC2CCCO2)C(=O)O)cc1 (stereo not drawn)
Second: Cc1c(C(=O)O)cccc1-n1cccc1
The melting point of the first is lower: 105 to 107 °C for the first, 146 to 148 °C for the second.

First: CCc1c(Oc2ccc([N+](=O)[O-])cc2C(F)(F)F)nn(C(=O)NC)c1C
Second: Cc1oc(-c2ccc(C(F)(F)F)cc2)nc1CC#N
The melting point of the first is higher: 96 to 97 °C for the first, 85 to 86 °C for the second.

First: CCOC(=O)c1c2ccc(CC(=O)NOC(=O)NCCCCN)ccc-2c(C(=O)OCC)c1N
Second: CCCOc1ccc(S(=O)(=O)N2CCC(C(=O)OCC)CC2)cc1-c1nc2cc(N)c(N)cc2c(=O)[nH]1
The melting point of the first is lower: 150 °C for the first, 197 to 199 °C for the second.

First: CCCCc1nc2cccc(C(=O)O)c2n1Cc1ccc(-c2c(-c3nnn[nH]3)oc3ccccc23)cc1
Second: COc1ccc(-n2c(=O)oc3ccc(-c4ccc(F)cc4F)cc3c2=O)cc1OC
The melting point of the first is lower: 194 to 195 °C for the first, 198 to 199 °C for the second.

Going from `Nc1cc2c(cc1Cl)C(=O)C1(CC1)O2` to `Cc1cc2c(C)cc(=O)oc2cc1O`, the melting point rises from 201 °C to 273 °C.

Compared with `CCOc1ccc2c(c1)C(C)(c1cccc(O)c1)C(=O)N2S(=O)(=O)c1ccc(C(=O)NC(C)(C)C)cc1` (stereo not drawn), `COCC1=C(C)C(=O)C(OC)=C(OC)C1=O` is lower in melting point: 196 °C for the first, 31 to 36 °C for the second.

First: CC(C)CC(NC(=O)C(C)S)C(=O)O (stereo not drawn)
Second: CC(C=CC1=C(C)C(=O)CC1(C)C)=CC=O
The melting point of the first is lower: 77 to 84 °C for the first, 91 to 93 °C for the second.

First: CCCC12COC(C=O)(OC1)OC2
Second: CCCCc1c(Cl)nc(C)nc1Cl
The melting point of the first is higher: 117 to 118 °C for the first, 50 to 51 °C for the second.

Compound `CCCn1cnc2ncnn2c1=S` has a melting point of 168 to 169 °C.
